“And” between values parts separate entries of the source, which are not always exact repeats. Identical values can stand only once.
Key:
[1] = tested on: CD11b+ myeloid cells; test: CD11b+ myeloid expansion of differentiating human cord blood CD34+ progenitors; assay type: cell-based
Experimental: FIG. 7. SD208 increases erythroid expansion in human model of DBA through inhibition of NLK and not TGFβ. (a) Differentiating cord blood CD34+ progenitors were transduced with shRNA against luciferase or RPS19 and treated with inhibitors at working concentrations for TGFβ inhibition every three days. Cells were counted and CD235+ erythroid cells were assessed by flow cytometry after 15 days. (b) Prior to flow cytometry, 5000 cells per group were taken from differentiating cultures for NLK kinase assay. (c) CD34+ progenitors were transduced with shRNA against luciferase or RPS19 and non-targeting or siRNA against NLK. After sorting, samples were split into two groups and either treated with vehicle or SD208 every three days. After 15 days cells were counted and subject to flow cytometry to compare the expansion of maturing CD235+ erythroid (left panel) and CD11b+ myeloid cells (right panel). […] Cells were counted and CD235+ erythroid (D—upper) and CD11b+ myeloid cell (D—lower) percentages were determined by flow cytometry. The number of erythroid or myeloid cells is expressed as a percentage of the number of that lineage with no cytokine or drug treatment.
FIG. 9. […] Cells were counted and the percentage expressing CD235+ erythroid (left) and CD11b+ myeloid (right) was determined by flow cytometry. […] Values are expressed as a fold induction relative to untreated. (Panel C) Transduced and sorted CD34+ progenitors were cultured in methylcellulose in the presence or absence of metformin for 16 days and BFU-E erythroid (left) and CFU-GM myeloid (right) colonies scored. […] To directly compare the effect of metformin in each group, metformin-treated cultures were normalized to untreated cultures and are expressed as a fold induction of the untreated control. […]
Cells were incubated with human Fc receptor binding inhibitor (#14-9161-73; eBioscience) followed by primary antibodies CD235-APC (#306607; BioLegend) and CD11b-PE/Cy5 (#101209; BioLegend). Data were collected on a DxP10 flow cytometer (Cytek) and analyzed by using FlowJo Software, v.9.7.2.

[2] = tested on: Ter119+ erythroblasts; test: Ter119+ erythroblast expansion from murine Lin-Kit+ HSPCs (tet-shRPS19, RPL11+/lox); assay type: cell-based, mouse
Experimental: FIG. 8. NLK inhibition increases expansion of erythroid progenitors from human and murine models of DBA. Human cord blood CD34+ progenitors were transduced with lentivirus co-expressing GFP with shRNA against luciferase (shLuc), RPS19 (shRPS19) or RPL11 (shRPL11). After 36 hours cells GFP+ cells were differentiated in erythroid media in the presence or absence of 5 μM SD208 for 15 days. Cells were counted and assessed for cell surface expression of CD235. (a) The percentage of CD235+ cells was multiplied by the cell count and values were compared as a percentage of untreated controls. (b) Normalizing values relative to untreated RPS19-insufficiency progenitors facilitates direct comparison of erythropoiesis between untreated and SD208-treated cultures. (c) Approximately 3000 cells were removed from differentiating treatments at day 6 and NLK activity was assessed. Values were normalized to reflect a fold induction relative to untreated controls. (d) Lin-Kit+ hematopoietic progenitors were obtained from three mouse embryos expressing tetracycline-inducible shRNA against RPS19 at day E14.5 or three untreated mice, and thee mature RPL11^+/+ or three mature RPL11^+/lox mice treated with tamoxifen for eight weeks. Cells were grown in the presence or absence of doxycycline and/or SD208 for eight days prior to counting and assessing for ter119 surface expression. Values were expressed as a percentage relative to untreated controls (e) and directly comparing the effect of SD208 on erythropoiesis in ribosomal-insufficiency by expressing values relative to untreated ribosome-insufficient cultures (f). At day 5 approximately 3000 cells were assayed for NLK kinase assay (g). CD34+ HSPCs were isolated from three healthy control and three DBA patient mononuclear bone marrow aspirates by magnetic bead sorting and differentiated in the presence or absence of SD208 for 14 days. After counting the total cell population, the ratio of CD235+ erythroblasts was determined by flow cytometry and number of CD235+ erythroblasts calculated. This was expressed as a percentage of the average number of erythroid cells present in untreated healthy controls. (h) The direct effect of SD208 on erythroid expansion in DBA patient samples was calculated following normalization of untreated DBA patient samples as 1-fold, (i) At day five, 3000 cells from each of the differentiating cultures was analyzed for NLK activity by kinase assay and are expressed as a fold induction relative to untreated healthy controls.
FIG. 11. Metformin improves erythropoiesis in zebrafish model of DBA but not murine models. (Panel A, left portion) Murine fetal liver Kit+ progenitors expressing tetracycline-regulatable shRNA against RPS19 were cultured in the absence (grey columns) or presence (black columns) of doxycycline either alone, or treated with metformin. After 8 days, the number of ter119+ erythroblasts were calculated. (A right) RPL11+/lox mice were left untreated (grey columns) or treated (black columns) with tamoxifen for 5 weeks prior to isolation of bone marrow Lin-Kit+ progenitors. Progenitors were differentiated in the presence or absence of metformin for 8 days before assessing the number of Ter119+ erythroblasts. (Panel B) In conjunction with flow cytometry, cultures were subjected to qRT-PCR for NLK expression and (Panel C) kinase NLK kinase activity was assessed by in vitro kinase assay. […]

CC(C)=CCC[C@](C)(O[C@@H]1O[C@H](CO[C@@H]2O[C@H](CO)[C@@H](O)[C@H](O)[C@H]2O)[C@@H](O)[C@H](O)[C@H]1O)[C@H]1CC[C@]2(C)[C@@H]1[C@H](O)C[C@@H]1[C@@]3(C)CC[C@H](O[C@@H]4O[C@H](CO)[C@@H](O)[C@H](O)[C@H]4O[C@@H]4O[C@H](CO)[C@@H](O)[C@H](O)[C@H]4O)C(C)(C)[C@@H]3CC[C@]12C [ginsenoside Rb1]
impact on CD11b+ myeloid expansion ([1]; control or RPS19-insufficiency): did not impact

Fc1ccc(Cl)cc1-c1nc(Nc2ccncc2)c2nccnc2n1 [SD208]
erythropoiesis, % of controls ([2]; RPL11+/lox bone marrow HSPCs of three mice, SD208, 8 days, 31.2, 26.4, 18.6% without SD208): 57.3% and 56.8% and 50.3%
fold increase of erythropoiesis in response to SD208 ([2]; murine RPL11-insufficiency): 2.29 fold
fold increase of erythropoiesis in response to SD208 ([2]; murine RPS19-insufficiency): 3.88 fold
Ter119+ erythroblasts, % of populations differentiated without doxycycline ([2]; tet-shRPS19 fetal liver HSPCs of three mice, doxycycline + SD208, 8 days, 24.3, 20.3, 18.5% without SD208): 83.2% and 81.1% and 76.6%

CN(C)C(=N)N=C(N)N [metformin]
rescue of Ter119+ erythroblast expansion ([2]; murine RPS19- or RPL11-insufficiency, metformin, 8 days): did not rescue
influence on CD11b+ expansion ([1]; 50 mM metformin): negligible influence
